Patent publication US9771369B2, “Compounds and methods for kinase modulation, and indications therefor” (Plexxikon Inc., priority 2014, dated 2017)
pIC50: −log10 of the molar value.

How the values were obtained:
[1] = tested on: BaF3-FL KIT D816V or BaF3-FL KIT V560G/D816V cell line; experiment: Cell-based assays of c-Kit mutant kinase activity (cell proliferation, ATPlite); details: at least one of the c-kit cell assays of Example 7
Summary of the method: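 BaF3 cells dependent on transfected full-length human KIT D816V or V560G/D816V (pCI-Neo, CMV promoter) were seeded at 1×10^4 cells/well and exposed to 8-point 1:3 dilutions from 10 μM top (0.2% DMSO) for three days at 37° C. ATPlite luminescence gave cell number; IC50 from concentration-response.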

[2] = molecular target: c-Kit kinase (Homo sapiens (Human), UniProt P10721); experiment: c-Kit biochemical assay (AlphaScreen kinase activity)
Sequence of c-Kit kinase (P10721 26-976): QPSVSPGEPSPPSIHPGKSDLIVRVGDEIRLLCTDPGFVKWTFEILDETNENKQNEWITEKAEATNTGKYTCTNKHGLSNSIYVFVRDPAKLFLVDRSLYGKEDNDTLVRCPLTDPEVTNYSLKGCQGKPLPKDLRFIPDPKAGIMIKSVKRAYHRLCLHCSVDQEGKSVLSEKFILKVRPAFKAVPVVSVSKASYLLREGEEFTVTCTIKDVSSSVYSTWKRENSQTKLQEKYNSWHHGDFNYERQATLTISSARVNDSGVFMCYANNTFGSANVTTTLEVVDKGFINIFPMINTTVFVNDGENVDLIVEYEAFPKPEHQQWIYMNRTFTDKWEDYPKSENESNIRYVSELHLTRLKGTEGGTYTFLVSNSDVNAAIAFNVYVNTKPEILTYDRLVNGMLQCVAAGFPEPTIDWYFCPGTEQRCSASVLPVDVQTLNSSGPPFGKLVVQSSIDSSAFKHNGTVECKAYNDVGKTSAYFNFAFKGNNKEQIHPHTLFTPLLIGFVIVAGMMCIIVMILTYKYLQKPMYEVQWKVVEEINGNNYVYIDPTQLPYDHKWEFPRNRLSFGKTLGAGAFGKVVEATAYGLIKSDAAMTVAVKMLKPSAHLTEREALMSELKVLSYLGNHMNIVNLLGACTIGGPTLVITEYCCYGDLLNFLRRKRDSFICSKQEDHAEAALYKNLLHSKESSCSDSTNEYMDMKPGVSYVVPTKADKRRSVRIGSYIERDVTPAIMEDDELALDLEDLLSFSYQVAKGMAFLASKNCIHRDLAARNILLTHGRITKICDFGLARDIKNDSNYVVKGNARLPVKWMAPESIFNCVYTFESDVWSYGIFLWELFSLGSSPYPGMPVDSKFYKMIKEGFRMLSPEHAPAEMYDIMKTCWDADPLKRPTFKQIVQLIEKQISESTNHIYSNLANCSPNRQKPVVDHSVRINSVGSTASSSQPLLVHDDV
Summary of the method: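 AlphaScreen: c-Kit phosphorylates biotin-(E4Y)3 (100 nM) at 10 μM ATP, pH 7.2 HEPES buffer with Mg/Mn, 5% DMSO, 1 h room temperature; streptavidin donor and PY30 acceptor beads detect product. Second format: 100 μM ATP, 30 nM biotin-(E4Y)10, pH 7.5. IC50 from 8-point 1:3 dilution curves.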

SMILES: Cc1nc(C2CCN(c3ncnc4[nH]c(-c5ccc(F)cc5)cc34)CC2)[nH]c1-c1ccccc1 [P-3002, 6-(4-fluorophenyl)-4-[4-(4-methyl-5-phenyl-1H-imidazol-2-yl)-1-piperidyl]-7H-pyrrolo[2,3-d]pyrimidine]
- pIC50 [1]: > 5.00
- IC50 [2]: 0.0001 to 1 µM

SMILES: COc1cc(-c2cc3c(N4CCC(c5nc(C)c(-c6ccccc6)[nH]5)CC4)ncnc3[nH]2)ccn1 [P-3003, 6-(2-methoxy-4-pyridyl)-4-[4-(4-methyl-5-phenyl-1H-imidazol-2-yl)-1-piperidyl]-7H-pyrrolo[2,3-d]pyrimidine]
- pIC50 [1]: > 5.00
- IC50 [2]: 0.0001 to 1 µM

SMILES: Cc1cc2c(N3CCC(c4nc(C)c(-c5ccccc5)[nH]4)CC3)ncnc2[nH]1 [P-3004, 6-methyl-4-[4-(4-methyl-5-phenyl-1H-imidazol-2-yl)-1-piperidyl]-7H-pyrrolo[2,3-d]pyrimidine]
- pIC50 [1]: > 5.00
- IC50 [2]: 10 to 300 µM

SMILES: Cc1cc2c(N3CCC(c4nc(C)c(-c5ccc(F)cc5)[nH]4)CC3)ncnc2[nH]1 [P-3005, 4-[4-[5-(4-fluorophenyl)-4-methyl-1H-imidazol-2-yl]-1-piperidyl]-6-methyl-7H-pyrrolo[2,3-d]pyrimidine]
- pIC50 [1]: > 5.00
- IC50 [2]: 1 to 10 µM

SMILES: COc1cc(-c2cc3c(N4CCC(c5nc(C)c(-c6cccc(F)c6)[nH]5)CC4)ncnc3[nH]2)ccn1 [P-3019, 4-[4-[5-(3-fluorophenyl)-4-methyl-1H-imidazol-2-yl]-1-piperidyl]-6-(2-methoxy-4-pyridyl)-7H-pyrrolo[2,3-d]pyrimidine]
- pIC50 [1]: > 5.00
- IC50 [2]: 10 to 300 µM

SMILES: Cc1nc(C2CCN(c3ncnc4[nH]c(-c5ccc(C#N)cc5)cc34)CC2)[nH]c1-c1ccc(F)cc1 [P-3020, 4-[4-[4-[5-(4-fluorophenyl)-4-methyl-1H-imidazol-2-yl]-1-piperidyl]-7H-pyrrolo[2,3-d]pyrimidin-6-yl]benzonitrile]
- pIC50 [1]: > 5.00
- IC50 [2]: 1 to 10 µM

SMILES: COc1cccc(-c2[nH]c(C3CCN(c4ncnc5[nH]c(-c6ccc(C#N)cc6)cc45)CC3)nc2C)c1 [P-3021, 4-[4-[4-[5-(3-methoxyphenyl)-4-methyl-1H-imidazol-2-yl]-1-piperidyl]-7H-pyrrolo[2,3-d]pyrimidin-6-yl]benzonitrile]
- pIC50 [1]: > 5.00
- IC50 [2]: 0.0001 to 1 µM

SMILES: COc1cccc(-c2[nH]c(C3CCN(c4ncnc5[nH]c(-c6ccnc(OC)c6)cc45)CC3)nc2C)c1 [P-3022, 4-[4-[5-(3-methoxyphenyl)-4-methyl-1H-imidazol-2-yl]-1-piperidyl]-6-(2-methoxy-4-pyridyl)-7H-pyrrolo[2,3-d]pyrimidine]
- pIC50 [1]: > 5.00
- IC50 [2]: 1 to 10 µM

SMILES: COc1cc(-c2cc3c(N4CCC(c5nc(C)c(-c6ccc(OC)c(C)c6)[nH]5)CC4)ncnc3[nH]2)ccn1 [P-3023, 4-[4-[5-(4-methoxy-3-methyl-phenyl)-4-methyl-1H-imidazol-2-yl]-1-piperidyl]-6-(2-methoxy-4-pyridyl)-7H-pyrrolo[2,3-d]pyrimidine]
- pIC50 [1]: > 5.00
- IC50 [2]: 0.0001 to 1 µM

SMILES: CCOc1cccc(-c2[nH]c(C3CCN(c4ncnc5[nH]c(-c6ccc(F)cc6)cc45)CC3)nc2C)c1 [P-3024, 4-[4-[5-(3-ethoxyphenyl)-4-methyl-1H-imidazol-2-yl]-1-piperidyl]-6-(4-fluorophenyl)-7H-pyrrolo[2,3-d]pyrimidine]
- pIC50 [1]: > 5.00
- IC50 [2]: 1 to 10 µM

SMILES: CCOc1cccc(-c2[nH]c(C3CCN(c4ncnc5[nH]c(-c6ccc(C#N)cc6)cc45)CC3)nc2C)c1 [P-3025, 4-[4-[4-[5-(3-ethoxyphenyl)-4-methyl-1H-imidazol-2-yl]-1-piperidyl]-7H-pyrrolo[2,3-d]pyrimidin-6-yl]benzonitrile]
- pIC50 [1]: > 5.00
- IC50 [2]: 1 to 10 µM

SMILES: CCOc1ccc(-c2[nH]c(C3CCN(c4ncnc5[nH]c(-c6ccc(F)cc6)cc45)CC3)nc2C)cc1 [P-3026, 4-[4-[5-(4-ethoxyphenyl)-4-methyl-1H-imidazol-2-yl]-1-piperidyl]-6-(4-fluorophenyl)-7H-pyrrolo[2,3-d]pyrimidine]
- pIC50 [1]: > 5.00
- IC50 [2]: 1 to 10 µM
